Data on 36 molecules can be found in a melting point compilation (Tetko et al.; mined from patent text by program, amines drawn as free bases though some values may be those of a salt).

The melting point is the temperature, or range, at which the solid turns liquid.

Where only a bound is given, the exact number is not on record here.

Regarding `CCCNC(=O)n1nc(Oc2ncc(C(F)(F)F)cc2Cl)c(Cl)c1C`, the melting point fell in the range of 54 to 56 °C. Under `CCCn1c2cc(Cl)ccc2c(=O)c2cccn21` stands 107 to 108 °C. The molecule `ON=c1cc(-c2cc3sccc3cn2)oc2ccc(OCCc3ccc(F)cc3)cc12` gave a melting point of 228 to 234 °C. Under `CC(=O)c1cc(Cl)cc(Oc2ncccc2C(=O)NCc2ccc(C(C)(C)O)cc2Cl)c1` stands 58 to 60 °C. As for `O=C(C=CCl)CCCN1C(=O)c2ccccc2C1=O`, the figure is 92 °C. As for `C[C@H](NC(=O)OCC1c2ccccc2-c2ccccc21)C(=O)N1[C@H](C)C(=O)OC[C@@H]1c1ccccc1`, the figure is 87 to 88 °C; as for `CCCOc1cc(OCCC)c2c(C)c(CCCl)c(=O)oc2c1`, 99 to 101 °C; as for `CN(C)C(=O)c1cn(C)c2nc3cc(F)c(F)cc3cc2c1=O`, 324 °C. In turn, `CC(=O)c1ccc(F)c(S(N)(=O)=O)c1` gave a melting point of 135 °C. As for `NC(=NO)c1cccc2ccccc12`, the figure is 128 to 130 °C. `CC(C)c1c(O)cccc1O` returned a melting point of 79 to 82 °C. Under `Fc1ccc(-c2nc(-c3ccccc3)sc2-c2ccncc2)cc1` stands 135 to 137 °C; under `CN(C)c1nn(C(=O)NC(C)(C)CF)c(=O)n1NCc1cccc(Cl)c1`, 158 °C. As for `C#CCOc1cc(C(=O)O)cc(N)c1C(=O)c1ccccc1`, the figure is 192 °C; as for `COc1ccc(OC)c(CCNC(=O)N(C)O)c1`, 73 to 74 °C; as for `COc1ccccc1N1CCN(Cc2c[nH]c3ccccc23)CC1`, 188 to 190 °C. As for `O=C(O)C1Cc2c(ncn2Cc2ccccc2O)CN1C(=O)C(c1ccccc1)c1ccccc1` (stereo unspecified), the figure is 187 to 190 °C; as for `COc1ccc(C(=O)C=Cc2ccc(C(C)(C)C)cc2)cc1`, 114 to 116 °C; as for `CCOC(=O)Nc1ccccc1C(=O)OCC`, less than 40 °C. `CCN(CC)C(=O)n1cnc(S(=O)(=O)Cl)n1` showed a melting point of 44 to 47 °C. As for `O=C(O)CN(CC(=O)c1ccccc1)c1c(C(=O)O)[nH]c2cc(Cl)cc(Cl)c12`, the figure is 235 to 237 °C. As for `CCC[C@H](NC(=O)/C=C/S(=O)(=O)c1ccccc1)C(=S)OC`, the figure is 131 to 132 °C; as for `COC(=NC(=O)c1ccccc1)NC(=O)c1ccccc1`, 139 to 141 °C.

Molecule `Cc1ccccc1OS(=O)(=O)c1cc(S(N)(=O)=O)c(Oc2ccccc2)cc1Cl` gave a melting point of 157 to 159 °C.

Molecule `CCCc1c(OCCOc2cccc(C(=O)NCCCCc3cccnc3)c2)ccc(C(C)=O)c1O` gave a melting point of 90 °C.

For the molecule `CC(C)(C)OC(=O)Nc1ccc(-c2c[nH]c(=O)cn2)cc1`, the melting point lay in the range of 267 to 269 °C. Under `COC(=O)c1ccc(CN2CCCc3cc4c(cc32)C(C)(C)CCC4(C)C)cc1` stands 173 to 175 °C. As for `Cc1cc(C(=O)c2cc(C(F)(F)F)cc(C(F)(F)F)c2)ccc1N(C)C`, the figure is 145 to 147 °C; as for `O=Cc1c(Cl)cc(Cl)cc1OCc1ccccc1`, 98 to 100 °C; as for `CC(C)OP(=O)(CC1(C(=O)O)CCCC1)OC(C)C`, 53 to 57 °C. As for `O=S(=O)(c1ccccc1)c1ccc(OCc2ccccc2)c(O)c1`, the figure is 144 to 148 °C; as for `CC(C)n1nc(O)nc1N1CCCC1`, 123 to 125 °C; as for `COc1ccc(-n2c(=O)c(-c3ccccc3)nc3ccccc32)cc1`, 199 to 202 °C. For `CCCCCCCN(CCCCCSc1nc(-c2ccccc2)c(-c2ccccc2)[nH]1)C(=S)Nc1ccc(F)cc1F`, the melting point was 116 to 118 °C. Under `Oc1ccc(Sc2ccc(F)cc2)c2ccccc12` stands 195 to 198 °C. As for `N#CC1OC12CCN(C(=O)c1ccc(F)c(Cl)c1)CC2` (stereo unspecified), the figure is 100 to 101 °C.
